The values below come from patent US20240208953A1, “"Cyclopenta[c]pyrrol Negative Allosteric Modulators of NR2B"” (Novartis AG, priority 2021, published 2024).

The term IC50 denotes the concentration that gives 50% inhibition.

The target of one data set is NR2B (Rattus norvegicus (Rat), UniProt Q00960). In words: NR2B rat cortical neuron calcium influx assay. The data set is classed as cell-based. The conditions noted are these: rat cortical neurons, glutamate and glycine stimulated calcium influx. The text has this:
Example 1: NR2B Rat Cortical Neuron Calcium Influx Assay Protocol
Embryonic day 18 timed pregnant Sprague Dawley rats were euthanized according to Institutional Animal Care and Use Committee (IACUC) protocol. After cutting medially through the skin and exposing the uterus and embryos, fetuses were removed and placed in cold Hibernate medium. Each embryo's brain was extracted and cerebral cortices were isolated by removing the midbrain and meninges. The dissected cortices were then dissociated into the neurons using papain dissociation system (Worthington Biochemical Corporation) according the manufacturer's protocol.
Dissociated neurons were counted and plated into 384-well poly-D-lysine coated plates (Corning® BioCoat™) at a density of 20,000 cells/well in 30 μL of Neurobasal/B27 complete medium. Neurons were cultured at 37° C. for 2 days. On the assay day, medium was removed and cells were incubated with 20 μL/well of calcium dye (Calcium 6 Assay Kit, Molecular Devices) suspended in HBSS with 1.8 mM Ca^2+ (Ca-HBSS) according to the manufacturer's instruction.
Compounds of interest from 10 mM stock were serially diluted into 3× of desired concentrations in 1.8 mM Ca-HBSS, and 10 μL were added to the wells. Compound and the neurons were incubated at 37° C. for 2 hours in the dark.
On FDSS7000EX (Hamamatsu Photonics), a fluorescence measuring instrument, 10 μL of 4× ligand solution containing glutamate and glycine made in 1.8 mM Ca^2+-HBSS were added to each well. The fluorescent signals were collected before and after the addition of ligands for a total of 2 minutes. The data were converted to a ratio of the peak fluorescence to the fluorescence at the beginning of the measurement.
Each data point was measured in duplicates. Dose response curves were used to identify IC50 and maximal inhibition values. IC50 represents the concentration in μM of compound at which there is a half-maximal compound effect. Maximal inhibition of a compound is expressed as a percent of the highest inhibition of activity over a no compound control.

The next data set addresses P-glycoprotein (P-gp) (Homo sapiens (Human), UniProt P08183). In words: MDCK-MDR1 permeability / efflux assay. The data set is classed as in vitro ADME. The conditions noted are these: for efflux ratio at 120 min, 10 μM: dog, MDCK-MDR1, pH 7.4, efflux ratio, read-out: MDCK-MDR1 ER; for MDCK-MDR1 ER: efflux ratio, 10 μM, 120 min. How it is done:
Example 4. Experimental Measurement of Efflux with MDCK-MDR1 Protocol
Cell Culture. MDCK-MDR1 cells were cultured at 37° C. under a 5% CO2 atmosphere, at 95% relative humidity in DMEM containing 10% FBS, penicillin-streptomycin (100 μg/mL), and 2 mM Ala-Gln. Cells were passaged every 3-4 days. For assay purposes, cells were seeded at a density of approximately 265,000 cells/cm^2 of a 96-well Transwell plate (Corning Life Sciences, Acton, MA) and cultured in the same media noted above for a period of 4 days.
Assay. The determination of the apparent permeability (Papp) was performed in both the A→B (apical to basal) and B→A (basal to apical) directions where each compound was assayed in triplicate. The zwitterion bestatin, a poorly permeably compound, was used as marker of monolayer integrity. To initiate the assay, media was aspirated, and the cells and basal chambers were washed three times with Hank's Balanced Salt Solution (HBSS) containing 10 mM HEPES (pH 7.4). Compound test solutions were prepared in triplicate in HBSS containing 10 mM HEPES (pH 7.4) and 0.02% bovine serum albumin (BSA) to a final concentration of 10 μM and centrifuged for 2 min at 4000×g, then applied to the donor compartment at time zero. Additionally, at time zero, a 37° C. solution without test articles (HBSS+10 mM HEPES (pH 7.4) plus 0.02% BSA) was added to the receiver chamber of the Transwell plate. A time zero sample of the donor solution was also sampled for further analysis. The assay was conducted for a period of 120 min at 37° C. without shaking. At the time of assay termination, samples were taken from each donor compartment, and each acceptor compartment of the Transwell plate. To each of the 0 and 120 min samples was added an internal standard solution containing glyburide in water:acetonitrile, 50:50 (v:v). Concentration curves were prepared using a Labcyte Echo in the same matrix noted above. Samples and concentration curve samples were centrifuged for 10 min at 4000×g and subsequently analyzed by mass spectroscopy.
Mass Spectroscopy. Assay samples were loaded onto a RapidFire C4 cartridge by means of a RapidFire autosampler (Agilent, Santa Clara, CA). […] Mass spectroscopy was performed using an AB Sciex AP15500 (Sciex, Frammingham, MA) equipped with a turbo ion spray source. The analyte concentration was calculated from the chromatographic peak area ratio of analyte to internal standard (glibenclamide, m/z 494→169), using Multiquant software V3.0 (Sciex, Framingham, MA).
Calculations. Papp values were determined as
Percent recovery values were determined as:
where VA is the volume of the acceptor (mL), S is the surface area of the membrane, D0 is the donor solution concentration at t=0, D120 is the donor solution concentration at t=120, A120 is the acceptor solution concentration at t=120, and t=time (seconds).
The suitability of a compound for oral dosing and/or for use as a CNS therapeutic is usually conducted by MDCK-MDR1 permeability assay to investigate its drug efflux potential mediated by P-glycoprotein (P-gp). MDCK-MDR1 permeability has been used as a predictor of blood brain barrier permeability in terms of efflux ratio (ER).

Sequence of P-glycoprotein (P-gp) (P08183 whole entry): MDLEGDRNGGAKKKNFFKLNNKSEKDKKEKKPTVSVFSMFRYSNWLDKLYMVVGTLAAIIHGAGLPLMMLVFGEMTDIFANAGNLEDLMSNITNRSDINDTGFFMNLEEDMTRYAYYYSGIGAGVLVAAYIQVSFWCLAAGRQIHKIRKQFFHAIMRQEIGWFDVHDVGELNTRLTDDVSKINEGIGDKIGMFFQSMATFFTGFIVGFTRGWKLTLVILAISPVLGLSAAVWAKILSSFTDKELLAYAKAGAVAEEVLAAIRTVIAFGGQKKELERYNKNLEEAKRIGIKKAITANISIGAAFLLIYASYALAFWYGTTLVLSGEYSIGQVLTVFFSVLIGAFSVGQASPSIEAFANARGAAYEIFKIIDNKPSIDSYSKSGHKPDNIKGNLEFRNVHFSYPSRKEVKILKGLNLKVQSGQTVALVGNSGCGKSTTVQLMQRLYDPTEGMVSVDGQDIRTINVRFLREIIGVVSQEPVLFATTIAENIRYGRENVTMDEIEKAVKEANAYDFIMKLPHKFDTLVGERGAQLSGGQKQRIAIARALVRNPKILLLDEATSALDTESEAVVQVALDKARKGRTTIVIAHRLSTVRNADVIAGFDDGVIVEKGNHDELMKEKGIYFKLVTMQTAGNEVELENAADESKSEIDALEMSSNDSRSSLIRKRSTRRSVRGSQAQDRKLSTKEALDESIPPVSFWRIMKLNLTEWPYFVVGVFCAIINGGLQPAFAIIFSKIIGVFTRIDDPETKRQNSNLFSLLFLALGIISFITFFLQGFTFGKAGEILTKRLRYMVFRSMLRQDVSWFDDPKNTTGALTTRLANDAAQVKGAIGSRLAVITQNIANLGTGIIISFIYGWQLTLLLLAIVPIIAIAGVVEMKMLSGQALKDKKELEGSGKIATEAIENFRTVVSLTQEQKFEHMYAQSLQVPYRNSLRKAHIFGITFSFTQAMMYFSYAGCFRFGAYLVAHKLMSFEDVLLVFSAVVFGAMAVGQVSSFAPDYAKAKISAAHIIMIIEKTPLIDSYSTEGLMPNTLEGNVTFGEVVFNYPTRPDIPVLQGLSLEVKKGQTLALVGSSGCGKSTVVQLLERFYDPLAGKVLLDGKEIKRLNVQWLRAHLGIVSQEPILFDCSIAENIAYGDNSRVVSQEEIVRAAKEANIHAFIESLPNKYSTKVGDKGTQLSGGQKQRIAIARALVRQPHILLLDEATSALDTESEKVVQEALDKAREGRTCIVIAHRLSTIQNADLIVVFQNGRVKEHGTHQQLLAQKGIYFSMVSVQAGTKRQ
Sequence of NR2B (Q00960 27-1482, other chains not shown): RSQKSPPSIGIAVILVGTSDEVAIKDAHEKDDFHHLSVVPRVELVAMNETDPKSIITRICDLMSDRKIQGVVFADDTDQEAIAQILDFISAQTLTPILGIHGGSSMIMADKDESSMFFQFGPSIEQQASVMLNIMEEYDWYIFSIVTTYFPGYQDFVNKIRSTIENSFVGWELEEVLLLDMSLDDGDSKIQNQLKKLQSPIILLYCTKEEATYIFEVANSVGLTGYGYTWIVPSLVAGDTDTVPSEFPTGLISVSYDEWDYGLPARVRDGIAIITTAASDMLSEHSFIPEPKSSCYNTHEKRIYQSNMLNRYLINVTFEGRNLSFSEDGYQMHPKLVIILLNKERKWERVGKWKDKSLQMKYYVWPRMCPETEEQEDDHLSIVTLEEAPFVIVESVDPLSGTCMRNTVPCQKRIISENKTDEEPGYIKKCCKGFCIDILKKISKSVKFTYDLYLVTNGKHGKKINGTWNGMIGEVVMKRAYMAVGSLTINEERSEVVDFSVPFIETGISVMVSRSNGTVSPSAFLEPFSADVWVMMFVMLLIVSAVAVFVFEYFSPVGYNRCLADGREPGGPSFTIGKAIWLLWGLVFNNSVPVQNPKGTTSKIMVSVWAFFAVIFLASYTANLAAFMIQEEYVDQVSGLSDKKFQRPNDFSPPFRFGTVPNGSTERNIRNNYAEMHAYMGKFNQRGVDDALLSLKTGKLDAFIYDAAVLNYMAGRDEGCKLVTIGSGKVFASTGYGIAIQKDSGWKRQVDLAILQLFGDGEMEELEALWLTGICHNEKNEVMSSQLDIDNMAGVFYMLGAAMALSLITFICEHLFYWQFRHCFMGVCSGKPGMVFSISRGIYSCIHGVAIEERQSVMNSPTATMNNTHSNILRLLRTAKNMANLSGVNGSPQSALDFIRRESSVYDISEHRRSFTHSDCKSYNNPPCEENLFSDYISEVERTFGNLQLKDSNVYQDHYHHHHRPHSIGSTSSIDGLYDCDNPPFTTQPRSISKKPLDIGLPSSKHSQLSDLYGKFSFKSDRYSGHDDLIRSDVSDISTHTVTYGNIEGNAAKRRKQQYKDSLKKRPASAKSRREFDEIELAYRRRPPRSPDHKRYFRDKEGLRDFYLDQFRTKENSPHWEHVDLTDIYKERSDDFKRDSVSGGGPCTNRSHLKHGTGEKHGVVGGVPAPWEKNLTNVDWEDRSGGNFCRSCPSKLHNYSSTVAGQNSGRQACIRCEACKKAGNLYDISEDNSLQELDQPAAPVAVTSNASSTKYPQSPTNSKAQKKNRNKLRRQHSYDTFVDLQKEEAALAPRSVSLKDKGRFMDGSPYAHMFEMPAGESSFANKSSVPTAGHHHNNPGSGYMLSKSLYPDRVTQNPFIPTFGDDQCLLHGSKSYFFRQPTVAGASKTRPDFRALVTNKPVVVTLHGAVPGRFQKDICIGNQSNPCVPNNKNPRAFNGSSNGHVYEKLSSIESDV

Turning to `O=C1CCc2cc([C@H](O)CN3C[C@@H]4C[C@@H](Oc5cc(F)ccc5F)C[C@]4(O)C3)ccc2N1` (single isomer, unassigned) [Example 26D], the concentration for half-maximal inhibition (IC50) on NR2B was 1.9 nM. Moreover, the efflux ratio at 120 min, 10 μM on P-glycoprotein (P-gp) came to 2.52.

Turning to `O=c1[nH]c2c(F)cc([C@H](O)CN3C[C@H]4C[C@H](Oc5ccccc5)C[C@@]4(O)C3)cc2cc1F` (single isomer, unassigned) [Example 20B], the IC50 at NR2B came out at 0.33 nM. Besides, the efflux ratio at 120 min, 10 μM on P-glycoprotein (P-gp) came to 3.32.

Turning to `O=C1Nc2ccc([C@H](O)CN3C[C@H]4C[C@H](Oc5ccccc5)C[C@@]4(O)C3)cc2CO1` (single isomer, unassigned) [Example 28B], the IC50 at NR2B came out at 1.7 nM. Also, the efflux ratio at 120 min, 10 μM on P-glycoprotein (P-gp) is 3.18.

`O=C1CCc2c(ccc([C@H](O)CN3C[C@H]4C[C@H](Oc5ccccc5)C[C@@]4(O)C3)c2F)N1` (single isomer, unassigned) [Example 9B]: the IC50 at NR2B amounted to 4.1 nM. On P-glycoprotein (P-gp), the efflux ratio at 120 min, 10 μM was 1.4.

As for `O=C1CCc2cc([C@@H](O)CN3C[C@@H]4C[C@@H](Oc5cccc(F)c5)C[C@]4(O)C3)ccc2N1` (single isomer, unassigned) [Example 23C], at NR2B, the IC50 is 1.4 nM. The efflux ratio at 120 min, 10 μM at P-glycoprotein (P-gp) came out at 3.75.

Consider `O=C1Nc2ccc([C@@H](O)CN3C[C@H]4C[C@H](Oc5ccccc5F)C[C@@]4(O)C3)cc2CS1` (single isomer, unassigned) [Example 15A], for which the IC50 on NR2B turned out to be 0.0015 nM. Moreover, the efflux ratio at 120 min, 10 μM on P-glycoprotein (P-gp) came out at 1.6.

For the compound `O=C1CCc2cc([C@H](O)CN3C[C@@H]4C[C@@H](Oc5ccccc5F)C[C@]4(O)C3)cc(F)c2N1` (single isomer, unassigned) [Example 6D], at NR2B, the IC50 is 2.4 nM. Besides, at P-glycoprotein (P-gp), the efflux ratio at 120 min, 10 μM worked out at 1.29.

For `O=C1Cc2cc([C@H](O)CN3C[C@H]4C[C@H](Oc5ccccc5)C[C@@]4(O)C3)ccc2N1` [Example 2B, 5-((S)-1-hydroxy-2-((3aS,5S,6aR)-3a-hydroxy-5-phenoxyhexahydrocyclopenta[c]pyrrol-2(1H)-yl)ethyl)indolin-2-one], the half-maximal inhibitory concentration (IC50) at NR2B turned out to be 63 nM. Also, the efflux ratio at 120 min, 10 μM on P-glycoprotein (P-gp) is 3.54.

On to `O=c1[nH]c2ccc([C@H](O)CN3C[C@H]4C[C@H](Oc5ccccc5)C[C@@]4(O)C3)cc2s1` (single isomer, unassigned) [Example 17B], for which the 50% inhibitory concentration (IC50) at NR2B is 0.049 nM. Also, at P-glycoprotein (P-gp), the efflux ratio at 120 min, 10 μM stood at 2.06.

With `O=C1CCCc2cc([C@@H](O)CN3C[C@H]4C[C@H](Oc5ccccc5)C[C@@]4(O)C3)cc(F)c2N1` (single isomer, unassigned) [Example 30A], the IC50 at NR2B amounted to 280 nM. At P-glycoprotein (P-gp), the efflux ratio at 120 min, 10 μM came out at 1.18.

Regarding `O=C1Nc2c(F)cc([C@H](O)CN3C[C@H]4C[C@H](Oc5ccccc5F)C[C@@]4(O)C3)cc2CO1` (single isomer, unassigned) [Example 35B], at NR2B, the half-inhibitory concentration (IC50) stood at 1.3 nM. At P-glycoprotein (P-gp), the efflux ratio at 120 min, 10 μM came to 2.04.

Turning to `O=C1Nc2c(cc([C@@H](O)CN3C[C@H]4C[C@H](Oc5ccccc5)C[C@@]4(O)C3)c(F)c2F)CO1` (single isomer, unassigned) [Example 38A], the concentration for half-maximal inhibition (IC50) on NR2B came to 5.1 nM. Besides, the efflux ratio at 120 min, 10 μM at P-glycoprotein (P-gp) stood at 1.58.

With `O=C1Nc2ccc([C@H](O)CN3C[C@H]4C[C@H](Oc5ccccc5F)C[C@@]4(O)C3)cc2CO1` (single isomer, unassigned) [Example 41B], the half-inhibitory concentration (IC50) at NR2B amounted to 0.23 nM. Moreover, the efflux ratio at 120 min, 10 μM at P-glycoprotein (P-gp) was determined as 2.44.

As to `O=C1CCc2cc([C@H](O)CN3C[C@@H]4C[C@@H](Oc5ccccc5)[C@@H](O)[C@]4(O)C3)ccc2N1` [Example 4D, 6-((S)-2-((3aR,4R,5R,6aS)-3a,4-dihydroxy-5-phenoxyhexahydrocyclopenta[c]pyrrol-2(1H)-yl)-1-hydroxyethyl)-3,4-dihydroquinolin-2(1H)-one], on NR2B, the concentration for half-maximal inhibition (IC50) came out at 250 nM. Further, at P-glycoprotein (P-gp), the efflux ratio at 120 min, 10 μM stood at 6.87.

With `O=C1CCc2cc([C@H](O)CN3C[C@H]4C[C@H](Oc5ccccc5)C[C@@]4(O)C3)c(F)cc2N1` (single isomer, unassigned) [Example 10B], the IC50 at NR2B amounted to 0.56 nM. At P-glycoprotein (P-gp), the efflux ratio at 120 min, 10 μM was 2.49.

As for `O=C1CCc2cc([C@@H](O)CN3C[C@@H]4C[C@@H](Oc5cc(F)ccc5F)C[C@]4(O)C3)ccc2N1` (single isomer, unassigned) [Example 26C], on NR2B, the 50% inhibitory concentration (IC50) amounted to 1.3 nM. Further, at P-glycoprotein (P-gp), the efflux ratio at 120 min, 10 μM came to 3.27.

Turning to `O=C1CCc2cc([C@H](O)CN3C[C@@H]4C[C@@H](Oc5cccc(F)c5)C[C@]4(O)C3)ccc2N1` (single isomer, unassigned) [Example 23D], the half-maximal inhibitory concentration (IC50) at NR2B was found to be 1.3 nM. Also, at P-glycoprotein (P-gp), the efflux ratio at 120 min, 10 μM is 3.28.

As for `O=C1Cc2cc([C@H](O)CN3C[C@@H]4C[C@@H](Oc5ccccc5)[C@@H](O)[C@]4(O)C3)ccc2N1` [Example 3B], the half-maximal inhibitory concentration (IC50) at NR2B is above 10000 nM. Further, the “MDCK-MDR1 ER” value at P-glycoprotein (P-gp) is recorded as 6.36.

Turning to `O=C1CCc2cc([C@@H](O)CN3C[C@H]4C[C@H](Oc5ccccc5F)C[C@@]4(O)C3)ccc2N1` [Example 5A, 6-((R)-2-((3aS,5S,6aR)-5-(2-fluorophenoxy)-3a-hydroxyhexahydrocyclopenta[c]pyrrol-2(1H)-yl)-1-hydroxyethyl)-3,4-dihydroquinolin-2(1H)-one], the IC50 at NR2B was determined as 38 nM. Moreover, the efflux ratio at 120 min, 10 μM at P-glycoprotein (P-gp) came out at 1.05.

In the case of `O=C1Nc2c(F)cc([C@@H](O)CN3C[C@H]4C[C@H](Oc5ccccc5)C[C@@]4(O)C3)c(F)c2CO1` (single isomer, unassigned) [Example 37A], the IC50 on NR2B was 33 nM. Further, the efflux ratio at 120 min, 10 μM on P-glycoprotein (P-gp) stood at 1.15.

Turning to `O=c1ccc2cc([C@H](O)CN3C[C@H]4C[C@H](Oc5ccccc5)C[C@@]4(O)C3)ccc2[nH]1` (single isomer, unassigned) [Example 8B], the IC50 at NR2B was 0.57 nM. For the same compound, the efflux ratio at 120 min, 10 μM on P-glycoprotein (P-gp) stood at 3.46.

With “9-fluoro-7-((R)-1-hydroxy-2-((3aS,5S,6aR)-3a-hydroxy-5-phenoxyhexahydrocyclopenta[c]pyrrol-2(1H)-yl)ethyl)-1,5-dihydrobenzo[e][1,4]oxazepin-2(3H)-one [Example 32A]”, the half-inhibitory concentration (IC50) on NR2B came to 960 nM. In addition, the “MDCK-MDR1 ER” value at P-glycoprotein (P-gp) stood at 0.83.

With `O=C1Nc2ccc([C@@H](O)CN3C[C@H]4C[C@H](Oc5ccccc5F)C[C@@]4(O)C3)cc2CO1` (single isomer, unassigned) [Example 41A], the IC50 at NR2B turned out to be 0.3 nM. Besides, the efflux ratio at 120 min, 10 μM at P-glycoprotein (P-gp) worked out at 1.86.

`O=C1CCc2cc([C@H](O)CN3C[C@@H]4C[C@@H](Oc5cccc(F)c5F)C[C@]4(O)C3)ccc2N1` (single isomer, unassigned) [Example 24D]: the 50% inhibitory concentration (IC50) on NR2B was determined as 0.056 nM. Moreover, on P-glycoprotein (P-gp), the efflux ratio at 120 min, 10 μM was 2.64.
